Measured values: PubChem BioAssay AID1963451 (Molecular Pharmacology Branch, DTP, NCI, 2024)
Values joined by “and” are separate entries in the source; they are usually repeats but may differ in a detail not shown here. Equal entries are not always repeated.

System: 521955-158-R6-J3-PDC complex spheroid growth, % test/control
Experiment: Anticancer human tumor 521955-158-R6-J3-PDC patient-derived pancreatic carcinoma cell line growth inhibition [Asc]
Settings: for viability, T/C: stronger effect = lower value
Protocol: Multicellular complex tumor spheroid response to apoptosis pathway targeting inhibitors Alrizomadlin, Pelcitoclax, and Dasminapant in combination with a variety of drugs and investigational agents in selected tumor cell lines
The MDM2 inhibitor alrizomadlin, the Bcl-2/Bcl-xL inhibitor pelcitoclax, and the IAPs inhibitor dasminapant were evaluated both individually and in combination with standard of care and investigational anticancer small molecules within a complex spheroid model of solid tumors. . Complex spheroids include a stromal component modeled by human endothelial cells (HUVEC) and fibroblasts modeled by human mesenchymal stem cells (MSCs). The concentration ranges selected for each drug and investigational agent were based upon clinically achievable concentrations if the clinical Cmax of the agent was known.
Compounds. The drugs and investigational agents: alrizomadlin (APG-115; NSC831270), pelcitoclax (APG-1252; NSC835773), dasminapant (APG-1387;NSC834197), TAK-243 (NSC785004), copanlisib (NSC809693), olaparib (NSC753686), talazoparib (NSC767125), cobimetinib (NSC 768068), eltanexor (KPT-8602, NSC 794443), abemaciclib (NSC 768073), sotorasib (NSC818433), adagrasib (NSC 831453), MRTX-1133 (NSC 836407), Iadademestat (ORY1001, NSC 806812), and RMC-4630 (NSC839698), were obtained from the NCI Developmental Therapeutics Program Chemical Repository. The FDA-approved anticancer drug set is available from the Developmental Therapeutics Program at https://dtp.cancer.gov/organization/dscb/obtaining/available plates.htm. […] The stock solutions were prepared in dimethyl sulfoxide (DMSO, Sigma-Aldrich, St. Louis, MO, cat. D2650) at 800-fold the tested concentration and stored at -70 degrees C prior to their use. All drugs and investigational agents were tested over a range starting from a high concentration at or near the clinical Cmax and decreasing in half-log increments. If the clinical Cmax for an agent had not been determined, the highest concentration tested was 10 microM.
The patient-derived cancer (PDC) cell lines include five colon adenocarcinomas: 186277-243-T-J2-PDC, 616215-338-R-J1-PDC, 439559-082-T-J2-PDC, 463943-066-T-J2-PDC, and 519858-162-T-J1-PDC; three pancreatic carcinomas: 323965-272-R-J2-PDC, 521955-158-R6-J3-PDC, and 521955-158-R2-J5-PDC; two uterine sarcomas: 327498-152-R-J2-PDC and 993429-296-R-J1-PDC; two rhabdomyosarcomas: 755483-174-R-J1-PDC and 772245-204-R-J1-PDC; two soft tissue sarcomas: 126254-015-R-J1-PDC and 494315-158-R-J1-PDC; two malignant fibrous histiocytomas: 317291-083-R-J1-PDC and 596521-263-R-J1-PDC; two breast carcinomas: 171881-019-R-J1-PDC and 885512-296-R-J2-PDC; and one ovarian carcinoma: 6556581-035-R-J-PDC were obtained from the NCI PDMR, (https://pdmr.cancer.gov). The established cell lines HSSY-2 synovial sarcoma (RRID:CVCL 8719), SYO-1 synovial sarcoma (RRID:CVCL_7146), MPNST malignant peripheral neural sheath tumor were obtained from the Sloan Kettering Institute. The following established cell lines were purchased from the American Type Culture Collection (ATCC, Manassas, VA), Sor the received from the NCI repository:, PANC-1 pancreatic carcinoma (CRL-1469, RRID:CVCL_0480), OVCAR-5 ovarian carcinoma (RRID:CVCL_1628), OVCAR-8 ovarian carcinoma (RRID:CVCL_1629), , MCF-7 breast carcinoma (CRL-12584, RRID:CVCL_0031), MDA-MB-231 breast carcinoma (CRL-12532, RRID:CVCL_0062), NCI-H1876 small cell lung carcinoma (CRL-5902, RRID:CVCL_1503), NCI-H510A small cell lung carcinoma (HTB-184, RRID:CVCL_1565), NCI-H1417 (CRL-5869, RRID:CVCL_1469), and NCI-H196 small cell lung carcinoma (CRL-5823, RRID:CVCL_1509). Dr. Peter Houghton (Greehey Children's Cancer Research Institute, University of Texas Health Science Center, San Antonio, TX) provided Rh-18 rhabdomyosarcoma (RRID:CVCL_1659). Pooled donor human umbilical vein endothelial cells (HUVEC, Lonza, cat. CC-2519) and human mesenchymal stem cells (hMSC, Lonza, cat. PT-2501) were purchased from Lonza (Walkersville, MD).
Cell Culture. […]
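Further: spheroids exposed to compounds for 7 days.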
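Wherever viability, T/C is given: 100% = DMSO vehicle control wells.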

COc1c(OCCCN2CCOCC2)ccc2c3n(c(=NC(=O)c4cnc(N)nc4)nc12)CCN3 + Cc1c(S(C)(=O)=O)c(-c2cc(F)cc(N3CCN(c4ccc(NS(=O)(=O)c5ccc(NC(CCN6CCC(C(=O)OCCCP(=O)(O)O)CC6)CSc6ccccc6)c(S(=O)(=O)C(F)(F)F)c5)cc4)CC3)c2)c(-c2ccc(Cl)cc2)n1C(C)C
IC50 (curve of first compound, second compound 0.0316 µM): 222 nM | IC50 (curve of first compound, second compound 0.1 µM): 84.7 nM | IC50 (curve of first compound, second compound 0.316 µM): < 3.16 nM | IC50 (curve of first compound, second compound 1 µM): < 3.16 nM | IC50 (curve of first compound, second compound 3.16 µM): < 3.16 nM | IC50 (curve of first compound, second compound 10 µM): < 3.16 nM | viability, T/C (second compound 0.0316 µM, first compound 0.00316 µM): 87.5% | viability, T/C (second compound 0.0316 µM, first compound 0.01 µM): 84.8% | viability, T/C (second compound 0.0316 µM, first compound 0.0316 µM): 55.2% | viability, T/C (second compound 0.0316 µM, first compound 0.1 µM): 70.2% | viability, T/C (second compound 0.0316 µM, first compound 0.316 µM): 46.7% | viability, T/C (second compound 0.0316 µM, first compound 1 µM): 27.4% | viability, T/C (second compound 0.1 µM, first compound 0.00316 µM): 82.7% | viability, T/C (second compound 0.1 µM, first compound 0.01 µM): 61% | viability, T/C (second compound 0.1 µM, first compound 0.0316 µM): 61.6% | viability, T/C (second compound 0.1 µM, first compound 0.1 µM): 53.4% | viability, T/C (second compound 0.1 µM, first compound 0.316 µM): 34% | viability, T/C (second compound 0.1 µM, first compound 1 µM): 17.3% | viability, T/C (second compound 0.316 µM, first compound 0.00316 µM): 42% | viability, T/C (second compound 0.316 µM, first compound 0.01 µM): 38.9% | viability, T/C (second compound 0.316 µM, first compound 0.0316 µM): 39% | viability, T/C (second compound 0.316 µM, first compound 0.1 µM): 30.5% | viability, T/C (second compound 0.316 µM, first compound 0.316 µM): 28% | viability, T/C (second compound 0.316 µM, first compound 1 µM): 13% | viability, T/C (second compound 1 µM, first compound 0.00316 µM): 33.9% | viability, T/C (second compound 1 µM, first compound 0.01 µM): 36.3% | viability, T/C (second compound 1 µM, first compound 0.0316 µM): 33.5% | viability, T/C (second compound 1 µM, first compound 0.1 µM): 20.5% | viability, T/C (second compound 1 µM, first compound 0.316 µM): 15.8% | viability, T/C (second compound 1 µM, first compound 1 µM): 6.07% | viability, T/C (second compound 3.16 µM, first compound 0.00316 µM): 15.3% | viability, T/C (second compound 3.16 µM, first compound 0.01 µM): 18.2% | viability, T/C (second compound 3.16 µM, first compound 0.0316 µM): 16.9% | viability, T/C (second compound 3.16 µM, first compound 0.1 µM): 11.9% | viability, T/C (second compound 3.16 µM, first compound 0.316 µM): 4.31% | viability, T/C (second compound 3.16 µM, first compound 1 µM): 2.03% | viability, T/C (second compound 10 µM, first compound 0.00316 µM): 17.6% | viability, T/C (second compound 10 µM, first compound 0.01 µM): 14.4% | viability, T/C (second compound 10 µM, first compound 0.0316 µM): 8.58% | viability, T/C (second compound 10 µM, first compound 0.1 µM): 7.73% | viability, T/C (second compound 10 µM, first compound 0.316 µM): 2.64% | viability, T/C (second compound 10 µM, first compound 1 µM): 1.68%

O=C(c1cc(Cc2n[nH]c(=O)c3ccccc23)ccc1F)N1CCN(C(=O)C2CC2)CC1 + CCN1C(C(=O)NC23CCC(C(=O)O)(CC2)CC3)C(c2cccc(Cl)c2F)C2(C(=O)Nc3cc(Cl)ccc32)C12CCCCC2
IC50 (curve of first compound, second compound 0.00949 µM): > 10000 nM | IC50 (curve of first compound, second compound 0.03 µM): > 10000 nM | IC50 (curve of first compound, second compound 0.0949 µM): > 10000 nM | IC50 (curve of first compound, second compound 0.3 µM): > 10000 nM | IC50 (curve of first compound, second compound 0.949 µM): > 10000 nM | IC50 (curve of first compound, second compound 3 µM): > 10000 nM | viability, T/C (second compound 0.00949 µM, first compound 0.0316 µM): 109% | viability, T/C (second compound 0.00949 µM, first compound 0.1 µM): 98.4% | viability, T/C (second compound 0.00949 µM, first compound 0.316 µM): 92.4% | viability, T/C (second compound 0.00949 µM, first compound 1 µM): 83.7% | viability, T/C (second compound 0.00949 µM, first compound 3.16 µM): 83.4% | viability, T/C (second compound 0.00949 µM, first compound 10 µM): 89.7% | viability, T/C (second compound 0.03 µM, first compound 0.0316 µM): 127% | viability, T/C (second compound 0.03 µM, first compound 0.1 µM): 98.7% | viability, T/C (second compound 0.03 µM, first compound 0.316 µM): 94.2% | viability, T/C (second compound 0.03 µM, first compound 1 µM): 108% | viability, T/C (second compound 0.03 µM, first compound 3.16 µM): 82% | viability, T/C (second compound 0.03 µM, first compound 10 µM): 88.8% | viability, T/C (second compound 0.0949 µM, first compound 0.0316 µM): 106% | viability, T/C (second compound 0.0949 µM, first compound 0.1 µM): 98.6% | viability, T/C (second compound 0.0949 µM, first compound 0.316 µM): 88.6% | viability, T/C (second compound 0.0949 µM, first compound 1 µM): 101% | viability, T/C (second compound 0.0949 µM, first compound 3.16 µM): 96.4% | viability, T/C (second compound 0.0949 µM, first compound 10 µM): 89.8% | viability, T/C (second compound 0.3 µM, first compound 0.0316 µM): 113% | viability, T/C (second compound 0.3 µM, first compound 0.1 µM): 110% | viability, T/C (second compound 0.3 µM, first compound 0.316 µM): 135% | viability, T/C (second compound 0.3 µM, first compound 1 µM): 90.6% | viability, T/C (second compound 0.3 µM, first compound 3.16 µM): 89.3% | viability, T/C (second compound 0.3 µM, first compound 10 µM): 104% | viability, T/C (second compound 0.949 µM, first compound 0.0316 µM): 113% | viability, T/C (second compound 0.949 µM, first compound 0.1 µM): 114% | viability, T/C (second compound 0.949 µM, first compound 0.316 µM): 104% | viability, T/C (second compound 0.949 µM, first compound 1 µM): 92.1% | viability, T/C (second compound 0.949 µM, first compound 3.16 µM): 89.2% | viability, T/C (second compound 0.949 µM, first compound 10 µM): 89% | viability, T/C (second compound 3 µM, first compound 0.0316 µM): 90.8% | viability, T/C (second compound 3 µM, first compound 0.1 µM): 100% | viability, T/C (second compound 3 µM, first compound 0.316 µM): 96.5% | viability, T/C (second compound 3 µM, first compound 1 µM): 94.4% | viability, T/C (second compound 3 µM, first compound 3.16 µM): 104% | viability, T/C (second compound 3 µM, first compound 10 µM): 101%

CCN1CCN(Cc2ccc(Nc3ncc(F)c(-c4cc(F)c5nc(C)n(C(C)C)c5c4)n3)nc2)CC1
viability, T/C (compound 0.00316 µM): 88.9% and 113% and 94.9% | viability, T/C (compound 0.01 µM): 105% and 115% and 102% | viability, T/C (compound 0.0316 µM): 77.9% and 87.5% and 87.9% | viability, T/C (compound 0.1 µM): 86.7% and 105% and 94.8% | viability, T/C (compound 0.316 µM): 85.5% and 74.2% and 83.4% | viability, T/C (compound 1 µM): 87.4% and 96.5% and 91.6% | IC50 (curve of compound): > 1000 nM
